From US20240398806A1, “Compositions For and Methods of Treating and/or Preventing Pain” (Duke University, priority 2021, published 2024)
Like-named read-outs stand apart in the source and are kept apart here.

Assays:
[1] = tested on: NMDAR; type: cell-based; details: Arrb2-KO mice; NMDA 50 mM as printed
Protocol: In FIG. 9B-FIG. 9D. *p<0.05 as determined by a two-way or one-way ANOVA.
Spinal cord NMDAR plays a critical role in driving inflammatory and neuropathic pain (Woolf C J, et al. (2000) Science. 288(5472):1765-1769). Using spinal cord slice preparations, NMDA (50 mM) induced inward currents in spinal cord out lamina II (IIo) neurons were recorded in WT and Arrb2-KO mice. […] Similarly, duration of intrathecal (i.t.) NMDA-induced spontaneous pain was also potentiated in the KO mice (FIG. 9C).

[2] = target: T1, NTSR1 (Homo sapiens, UniProt P30989); assay: Cellular assay of β-arrestin-2 translocation in cells expressing NTSR1; type: cell-based; set-up: expressed in transfected cells; host or cells: HEK293T cell membranes
T1 sequence (P30989 whole entry): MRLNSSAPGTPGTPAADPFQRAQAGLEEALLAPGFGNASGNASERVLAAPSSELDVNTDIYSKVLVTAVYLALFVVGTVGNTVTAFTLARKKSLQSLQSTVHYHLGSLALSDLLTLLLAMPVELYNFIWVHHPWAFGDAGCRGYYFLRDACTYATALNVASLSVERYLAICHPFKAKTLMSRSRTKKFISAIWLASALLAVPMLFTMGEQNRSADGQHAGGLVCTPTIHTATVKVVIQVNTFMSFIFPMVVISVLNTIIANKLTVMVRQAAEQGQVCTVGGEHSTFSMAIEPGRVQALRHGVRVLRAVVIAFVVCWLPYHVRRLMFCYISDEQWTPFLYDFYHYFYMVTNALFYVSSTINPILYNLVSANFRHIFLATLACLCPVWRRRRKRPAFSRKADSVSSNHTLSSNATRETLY
Protocol: (§1) First, using cellular assays, whether IND candidates such as SBI-810 are similar or better than SBI-553 as β-arrestin biased agonist at NTSR1. is assessed. The chemical entities used in this work were synthesized and validated. However, routine validation of the profile of these compounds is performed routinely using both cellular and in vivo assays. For example, HEK293 cells that express either the NTSR1 or NTSR2 are used to assess the functional profile of the various chemical probes. In addition, a series of genetically engineered mouse lines are used to provide an in vivo validation of novel chemical entities for their abilities to module behaviors in these animals.
(§2) Fourth, cellular assays are used to establish that IND ready analogs like SBI-810 are still selective for the NTSR1 rather than NTSR2. The specificity of the lead compounds toward NTSR1. NTSR2. and β-arrestin-2 are tested in respective cellular assays. More specifically, cells expressing either NTSR1 or NTSR2 are used to assess the function of various compound. […] This translocation is not observed in cells expressing NTSR2.
(§3) Fourth, genetically engineered mice are used to assess the effects and mechanisms of novel ligands. The specificity of the lead compounds toward NTSR1, NTSR2, and β-arrestin-2 dependent signaling is examined. […]

[3] = target: T2, NTSR2 (Homo sapiens, UniProt O95665); assay: Cellular assay of β-arrestin-2 translocation in cells expressing NTSR2; type: cell-based
T2 construct: expressed in transfected cells; host or cells: HEK293 cells
T2 sequence (O95665 whole entry, species assumed): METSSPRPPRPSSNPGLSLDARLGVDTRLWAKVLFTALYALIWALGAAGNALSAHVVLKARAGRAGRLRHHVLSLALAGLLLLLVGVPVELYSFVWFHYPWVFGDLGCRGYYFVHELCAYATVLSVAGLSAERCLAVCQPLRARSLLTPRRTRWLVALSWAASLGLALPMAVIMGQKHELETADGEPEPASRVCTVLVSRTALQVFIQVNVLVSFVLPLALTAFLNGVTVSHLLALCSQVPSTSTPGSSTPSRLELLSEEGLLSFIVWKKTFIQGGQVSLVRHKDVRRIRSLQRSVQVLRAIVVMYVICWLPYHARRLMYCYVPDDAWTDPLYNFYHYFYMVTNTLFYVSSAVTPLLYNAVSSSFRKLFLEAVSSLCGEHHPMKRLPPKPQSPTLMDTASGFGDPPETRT
Protocol: as §1, §2, §3

[4] = Pharmacokinetics in monkey (IV and PO); type: in vivo; details: for AUC: monkey; for MRT last: read-out: MRT0-last
[5] = Pain models with systemic (IP or oral) administration; type: in vivo, mice and rats
[6] = target: T1, NTSR1; assay: [3H]SBI-553 saturation binding to NTSR1-containing HEK293T cell membranes; set-up: expressed in transfected cells; host or cells: HEK293T cell membranes; details: by the named competitor
[7] = tested on: lamina IIo neurons; set-up: dose or concentration left out as unconfirmed; details: slices of PTX-treated mice

For `C[C@@H](CN1CCC(Cc2ccccc2)CC1)[C@@H](O)c1ccc(O)cc1` [Ro25], the “Block of the increase in NMDA current amplitude caused by Arrb2 deficiency” value [1] was “dose-dependently blocked”.

In the case of `COc1ccccc1C1CCN(c2nc(C3(C)CC3)nc3ccc(N(C)CCO)cc23)CC1` [SBI-810], the “Translocation of β-arrestin-2 to intracellular compartments” value [2] is reported as “demonstrate translocation of β-arrestin-2”, the “Translocation of β-arrestin-2 to intracellular compartments” value [3] is reported as “not observed” and the Co ([4]; Monkey, IV 5 mg/kg) is reported as 4702 ng/mL. It also gave a T2/2 ([4]; Monkey, IV 5 mg/kg) of 6.54 h, a CI ([4]; Monkey, PO 20 mg/kg) of 5.2 mL/min/kg and a Co ([4]; Monkey, PO 20 mg/kg) of 314 ng/mL. For the same compound, the Oral availability ([4]; compared with SBI-553) was “enhanced oral availability”, the Levels in plasma ([4]; following i.v. and p.o. dosing) was “good levels in plasma” and the AUC ([4]; plasma, iv, 5 mg/kg, Monkey, IV 5 mg/kg, read-out: AUCo-inf) was 4340 ng·h/mL. It also gave an AUC ([4]; plasma, iv, 5 mg/kg, Monkey, IV 5 mg/kg, read-out: AUCo-last) of 4210 ng·h/mL, an AUC ([4]; plasma, po, 20 mg/kg, Monkey, PO 20 mg/kg, read-out: AUCo-inf) of 2230 ng·h/mL and an AUC ([4]; plasma, po, 20 mg/kg, Monkey, PO 20 mg/kg, read-out: AUCo-last) of 2120 ng·h/mL. It also gave a clearance ([4]; plasma, Monkey, IV 5 mg/kg) of 19.2 mL/min/kg, an MRT last ([4]; plasma, Monkey, IV 5 mg/kg) of 3.4 h and a Vd ([4]; plasma, Monkey, IV 5 mg/kg, read-out: Vdss) of 5 L/kg. For the same compound, the half-life ([4]; plasma, Monkey, PO 20 mg/kg) was 4 h, the MRT last ([4]; plasma, Monkey, PO 20 mg/kg) was 8 h and the “Pain reduction compared with SBI-553” value [5] was “more effective in reducing pain than SBI-553”.

In the case of `COc1cccc(OC)c1-c1cc(C(=O)NC2(C(=O)O)C3CC4CC(C3)CC2C4)nn1-c1ccc(C(=O)N(C)CCCN(C)C)cc1C(C)C` (stereo not drawn) [SR142948A, reference compound], the “Displacement of [3H]SBI-553 from NTSR1” value [6] is reported as “not displaced”.

With `CN1CC[C@]23c4c5ccc(O)c4O[C@H]2[C@@H](O)C=C[C@H]3[C@H]1C5` [morphine, reference compound] the “Excitatory synaptic transmission (sEPSCs) in lamina IIo neurons” value [7] was “did not produce significant inhibition”.
